Values of other authors, collected in US5744455A (priority 1993, dated 1998).
Like-named read-outs stand apart in the source and are kept apart here. One block for each compound: values may come before it.

Columns and labels:
[1] = system: doxorubicin-induced toxicity; conditions: humans and other species
human tumors = conditions: single agents
[2] = system: doxorubicin cardiotoxicity; conditions: non-cancer-bearing animals
[3] = not given; remark: listed apart in the source
[4] = system: daunorubicin cardiotoxicity; conditions: ICRF 187 given prior to daunorubicin
[5] = system: chronic daunorubicin cardiotoxicity; conditions: 30 minutes prior to daunorubicin, 12.5 and 25 mg/kg
[6] = system: chronic cardiotoxicity induced by Adriamycin; conditions: ICRF 187 12.5 mg/kg 30 minutes prior to Adriamycin 1.0 mg/kg
heart lesions = conditions: doxorubicin and ICRF 187
[7] = not given; remark: listed apart in the source
[8] = system: cardiac glutathione peroxidase
[9] = not given; remark: listed apart in the source
myocardial lesions = conditions: doxorubicin alone

Compound: Cc1c(C)c2c(c(C)c1O)CCC(C)(CCCC(C)CCCC(C)CCCC(C)C)O2 (stereo not drawn) [Alpha-tocopherol]
cardioprotection against doxorubicin-induced toxicity [1]: did not result in significant cardioprotection

Compound: CC(=O)N[C@@H](CS)C(=O)O [N-acetyl cysteine]
cardioprotection against doxorubicin-induced toxicity [1]: did not result in significant cardioprotection

solubility: low solubility
Compound: CC(CN1CC(=O)NC(=O)C1)N1CC(=O)NC(=O)C1 (racemic) [ICRF 159, (±)-1,2-bis(3,5-dioxopiperazinyl-1-yl)propane]
anti-tumor effect as single agent (human tumors): little effect against human tumors | doxorubicin cardioprotection [2]: shown promise

oral absorption [3]: very poor absorption
Compound: O=c1[nH]cc(F)c(=O)[nH]1 [Fluorouracil, fluorouracil]

Compound: C[C@@H](CN1CC(=O)NC(=O)C1)N1CC(=O)NC(=O)C1 [ICRF 187, (+)-1,2-bis(3,5-dioxopiperazinyl-1-yl)propane]
daunorubicin lethality and cardiotoxicity [4]: a reduction of lethality and cardiotoxicity | chronic daunorubicin cardiotoxicity [5]: reduced | Adriamycin-induced chronic cardiotoxicity [6]: prevented cardiotoxicity in all treated animals | dogs with no abnormalities in the hearts (heart lesions): three of six | dogs with minimal heart lesions (heart lesions; six dogs): three | SGOT and SGPT, vomiting, alopecia ([7]; 1500 mg/m^2): mild elevations of SGOT (serum glutamate-oxalate transaminase) and SGPT (serum glutamic-pyruvic transaminase), occasional vomiting and some alopecia | predominant adverse effects ([7]; 1500 mg/m^2): leukopenia and thrombocytopenia | dose limiting toxicity ([7]; administered three times daily, every three days, only chemotherapeutic agent): 1500 mg/m^2 | dose limiting toxicity ([7]; daily, for three consecutive days every three weeks): 1500 mg/m^2 | anti-tumor effect as single agent (human tumors): little effect against human tumors | solubility: more water soluble | doxorubicin cardioprotection [2]: shown promise

Compound: O=C(O)CN(CCN(CC(=O)O)CC(=O)O)CC(=O)O [EDTA, ethylenediaminetetraacetic acid]
erythrocyte ghost destruction by iron-doxorubicin complex (erythrocyte ghost): can prevent erythrocyte ghost destruction

Compound: COc1cccc2c1C(=O)c1c(O)c3c(c(O)c1C2=O)C[C@@](O)(C(=O)CO)C[C@@H]3O[C@H]1C[C@H](N)[C@H](O)[C@H](C)O1 [doxorubicin]
cardiac glutathione peroxidase activity [8]: directly depresses cardiac glutathione peroxidase activity | risk for development of cardiotoxicity ([9]; accumulated doses greater than 450 mg/m^2): greater than 10% | alopecia (hair loss) ([9]; human, in vivo): occurs frequently | nausea and vomiting ([9]; human, in vivo): occur regularly | peak of myelosuppression ([9]; human, in vivo): approximately 14±2 days | recovery from myelosuppression ([9]; human, in vivo): 15 to 18 days | cardiotoxicity on prolonged infusion ([9]; infusion over extended periods, e.g., 96 hours): small but measurable decrease in cardiotoxicity | patients developing unacceptable clinical toxicity ([9]; total cumulative dose 450 mg/m^2): 5-10% | animals with myocardial lesions (myocardial lesions): eight of nine
